Results from patent US9969741B2, “Pyrazolotriazines as inhibitors of nucleases” (MASARYKOVA UNIVERZITA, priority 2014, dated 2018).

The compounds below were run against T1, MRE11 (Saccharomyces cerevisiae, UniProt P32829) (assay: Nuclease inhibition assay, MRE11 (5′ flap fluorescent DNA substrate, gel readout)). Conditions: 5 nM enzyme, 5 nM 5′ flap substrate, 15 min at 30° C.
T1 construct: made in house; host or cells: S. cerevisiae protease-deficient strain BJ5464
T1 sequence (P32829 1-692): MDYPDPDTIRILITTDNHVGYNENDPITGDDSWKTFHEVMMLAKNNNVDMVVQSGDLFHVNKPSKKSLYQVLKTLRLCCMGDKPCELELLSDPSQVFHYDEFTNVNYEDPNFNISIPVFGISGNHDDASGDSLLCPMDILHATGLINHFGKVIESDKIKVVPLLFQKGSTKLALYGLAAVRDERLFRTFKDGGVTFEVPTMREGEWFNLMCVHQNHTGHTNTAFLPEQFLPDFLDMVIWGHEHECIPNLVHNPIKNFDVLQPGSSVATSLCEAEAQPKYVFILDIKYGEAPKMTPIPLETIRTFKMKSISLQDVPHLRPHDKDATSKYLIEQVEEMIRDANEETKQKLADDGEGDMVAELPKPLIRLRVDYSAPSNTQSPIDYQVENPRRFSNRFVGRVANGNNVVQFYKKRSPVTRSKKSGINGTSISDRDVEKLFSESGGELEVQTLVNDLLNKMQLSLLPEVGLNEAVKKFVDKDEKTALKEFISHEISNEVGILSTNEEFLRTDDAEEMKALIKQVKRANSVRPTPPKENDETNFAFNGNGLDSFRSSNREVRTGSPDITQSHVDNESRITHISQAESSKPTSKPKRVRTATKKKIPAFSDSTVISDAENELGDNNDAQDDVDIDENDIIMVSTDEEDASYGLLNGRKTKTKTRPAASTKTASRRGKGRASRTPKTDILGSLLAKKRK
Type: biochemical, yeast
Excerpt: In vitro assays were used for the determination of compound's IC50 values for inhibition of individual nucleases, i.e., MUS81/EME1, FEN1, EXO1, and MRE11. To generate IC50 values, concentration of compound was plotted against relative nuclease activity (in %). The dose-response curves were generated from inhibition data, from 5 point serial dilutions of inhibitory compounds, each in triplicate and fitted to a standard sigmoid curve. IC50 values were derived by standard nonlinear regression analysis.
All tested compounds were diluted in 100% DMSO (dimethylsulfoxide) to prepare working stocks with different concentrations. To keep the DMSO concentration constant in every reaction, always 0.5 μl of the compound stock was added to the reaction buffer. The reaction buffer differs depending on the enzyme tested. Also concentration of the compounds in the reaction depends on the particular enzyme, since the inhibitory effect of the compounds vary between the enzymes. Nevertheless, always doubling dilutions in the range 200-0.8 μM was used. The compound was added as the first component in the reaction buffer, followed by the enzyme addition. […]
For this experiment we prepared short fluorescently labeled oligonucleotide-based DNA substrates with specific structures reflecting the biochemical activities of tested individual nucleases (Table 1). […] For visualization, each substrate was labeled by fluorescent dye (fluorescein), which can be detected in the gel using appropriate imaging system (FLA-9000, Fuji) with filters for particular wavelengths (excitation: 485 nm, emission: 535 nm).
Nuclease assays were performed in reaction buffer specific for particular enzyme: MUS81/EME1 (50 mM Tris pH=7.5, 5 mM MgCl2, 1 mM DTT a 100 μg/ml BSA), MRE11 (30 mM Bis-Tris pH=7.0, 50 μg/ml BSA, 1 mM DTT a 250 μM MnCl2), EXO1 and FEN1 (50 mM Tris pH=7.5, 1 mM MgCl2, 1 mM DTT a 100 μg/ml BSA). […] Fluorescently labeled DNA was detected by FLA-9000 scanner (Fuji) and the result was evaluated using Multi-Gauge V3.2 software (Fuji). […]

Row | SMILES | IC50 [µM]
1 | CCc1nn2c(N)c(-c3nc4ccccc4[nH]3)nnc2c1-c1ccc(F)cc1 [Preparative Example 5A] | > 50
2 | Nc1c(-c2nc3ccccc3[nH]2)nnc2cc(-c3ccccc3)nn12 [Preparative Example 5C] | > 50
3 | Nc1c(-c2nc3ccccc3[nH]2)nnc2cc(-c3cccc4ccccc34)nn12 [Preparative Example 5K] | < 50
